{
  "source": "paper PMC9276671",
  "about": "“A first-in-human Phase I dose-escalation trial of the novel therapeutic peptide, ALM201, demonstrates a favourable safety profile in unselected patients with ovarian cancer and other advanced solid tumours” (British Journal of Cancer, 2022)",
  "key": {"[1]": {"experiment": "Safety and tolerability: adverse events and DLT (CTCAE v4.03)", "format": "in vivo", "protocol": "Eligible participants were enrolled in sequential cohorts treated with a subcutaneous (SC) injection of ALM201, with close monitoring for safety and dose-limiting toxicities (DLTs). Dose levels were not weight-adjusted, and the starting dose for the study was 10 mg ALM201 given on days 1–5, 8–12 and 15–19 every 21 days, i.e., weekday dosing to be given continuously. […] Every new dose cohort was evaluated for the occurrence of a DLT during treatment cycle 1.\nThis study commenced with an accelerated dose-escalation design, then switched to a conventional algorithm (3 + 3 patients per dose level) to identify the maximum tolerated dose (MTD), escalating on observation of 0/3 or 1/6 DLTs, and de-escalating if two or more patients with DLTs were encountered.\nSafety assessments included physical examination, vital signs, biochemistry and haematology laboratory screens, plus immunogenicity testing. Safety evaluations were conducted weekly during each treatment cycle, with DLT assessed during cycle one only. All events and suspected DLTs were graded according to the Common Toxicity Criteria for Adverse Events (CTCAE), version 4.03."}, "[2]": {"details": "Mouse, 3mg/kg SC, male animals; ref Investigator brochure (IB); cited from earlier work"}, "[3]": {"test_system": "xenograft", "details": "rat xenograft model, 3 mg/kg; ref Investigator brochure (IB); cited from earlier work", "protocol": "page 41: Almac Discovery Confidential 1.5 Rationale for Dose Selection Based on GLP, 28-day, repeat dose toxicology studies in the dog and rat, the NOAEL for ALM201 was not defined at the maximum dose evaluated of 50 mg/kgxiv. Therefore, based on standard allometric scaling based on the FDA guidelines (FDA, 2005 ), it is predicted that a human equivalent dose (HED) range of 8–28 mg/kg could be given without any drug-related adverse effects. Assuming a starting dose calculation based on a 10-fold safety margin in the most conservative model (the rat); the starting dose would be 0.8 mg/kg. Due t ..."}},
  "note": "No end group written: not given here.",
  "data": [
    {"sequence": "IRQQPRDPPTETLELEVSPDPAS [ALM201]", "values": [
      {"measurement": "Maximum tolerated dose (MTD)", "setting": "[1]; SC weekday doses of up to 300 mg", "value": "not reached"},
      {"measurement": "CTCAE grade 4-related toxicities", "setting": "[1]; all dose levels", "value": "no CTCAE grade 4-related toxicities"},
      {"measurement": "Thrombotic events, number of patients", "setting": "[1]; cohort 8 (100 mg) and cohort 1 (10 mg)", "value": "two"},
      {"measurement": "Dose-limiting toxicities (DLTs)", "setting": "[1]; cycle 1, 10-300 mg SC", "value": "No DLTs"},
      {"measurement": "Abdominal wall bruising, causality", "setting": "[1]; in vivo", "value": "Definite"},
      {"measurement": "Anorexia, causality", "setting": "[1]; in vivo", "value": "Possible"},
      {"measurement": "Arthralgia, causality", "setting": "[1]; in vivo", "value": "Possible"},
      {"measurement": "Blurred vision, causality", "setting": "[1]; in vivo", "value": "Probable"},
      {"measurement": "Depression, causality", "setting": "[1]; in vivo", "value": "Possible"},
      {"measurement": "Diarrhoea, causality", "setting": "[1]; in vivo", "value": "Possible"},
      {"measurement": "Fatigue, causality", "setting": "[1]; in vivo", "value": "Possible"},
      {"measurement": "Headache, causality", "setting": "[1]; in vivo", "value": "Possible"},
      {"measurement": "Hot flushes, causality", "setting": "[1]; in vivo", "value": "Possible"},
      {"measurement": "Injection-site erythema, causality", "setting": "[1]; in vivo", "value": "Definite"},
      {"measurement": "Injection-site immune reaction, causality", "setting": "[1]; in vivo", "value": "Definite"},
      {"measurement": "Injection-site pain, causality", "setting": "[1]; in vivo", "value": "Definite"},
      {"measurement": "Nausea, causality", "setting": "[1]; in vivo", "value": "Possible"},
      {"measurement": "Oral candidiasis, causality", "setting": "[1]; in vivo", "value": "Possible"},
      {"measurement": "Pedal oedema, causality", "setting": "[1]; in vivo", "value": "Possible"},
      {"measurement": "Pruritus, causality", "setting": "[1]; in vivo", "value": "Definite"},
      {"measurement": "Pulmonary embolus, causality", "setting": "[1]; in vivo", "value": "Possible"},
      {"measurement": "Pyrexia, causality", "setting": "[1]; in vivo", "value": "Possible"},
      {"measurement": "Urinary tract infection, causality", "setting": "[1]; in vivo", "value": "Possible"},
      {"measurement": "Venous thrombus, causality", "setting": "[1]; in vivo", "value": "Possible"},
      {"measurement": "Vomiting, causality", "setting": "[1]; in vivo", "value": "Possible"},
      {"measurement": "AUC24 (figure is for AUC0-∞)", "setting": "[2]", "value": 2166, "unit": "ng·h/mL"},
      {"measurement": "Cmax", "setting": "[2]", "value": 3477, "unit": "ng/mL"},
      {"measurement": "Half-life", "setting": "[2]", "value": 12, "unit": "min"},
      {"measurement": "Tmax", "setting": "[2]", "value": 10, "unit": "min"},
      {"measurement": "Anti-tumour activity", "setting": "[3]", "value": "significant anti-tumour"}
    ]}
  ]
}
